According to ChEMBL document CHEMBL1201862, “PubChem BioAssay data set” (2004):
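Cultured in 96-well plates, cells were exposed to test compound for 48 hours across five concentrations. Abbreviation: GI50, concentration required for 50% inhibition of growth.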 Active and inactive are the calls of the source. Rule as the data show it: active = GI50 up to about 1.1 µM and inactive = higher.

How the values were obtained:
Assay in all cases: growth of human tumour cells (NCI), 48 h
HCC 2998 = system: HCC 2998
HOP-62 = system: HOP-62
IGROV-1 = system: IGROV-1
LOX IMVI = system: LOX IMVI
M14 = system: M14
MDA-MB-435 = system: MDA-MB-435
MOLT-4 = system: MOLT-4
Malme-3M = system: Malme-3M
NCI-H23 = system: NCI-H23
NCI-H460 = system: NCI-H460
OVCAR-3 = system: OVCAR-3
OVCAR-8 = system: OVCAR-8
RXF 393 = system: RXF 393
SF-539 = system: SF-539
SK-MEL-5 = system: SK-MEL-5
U-251 = system: U-251
UACC-62 = system: UACC-62
DU-145 = system: DU-145

Measured: GI50

Cc1nc(C(N)=S)sc1C(=O)C/C(=N/N)C(=O)Nc1cccc(Cl)c1C
inactive: HCC 2998 > 100 µM | HOP-62 > 100 µM | IGROV-1 > 100 µM | LOX IMVI > 100 µM | M14 > 100 µM | MDA-MB-435 > 100 µM | MOLT-4 > 100 µM | Malme-3M > 100 µM | NCI-H23 > 100 µM | NCI-H460 > 100 µM | OVCAR-3 > 100 µM | OVCAR-8 > 100 µM | RXF 393 > 100 µM | SF-539 > 100 µM | SK-MEL-5 > 100 µM | U-251 > 100 µM | UACC-62 > 100 µM

Oc1ccc2ccccc2c1/N=N/c1cc(Cl)ccc1Cl
inactive: HOP-62 10 µM | IGROV-1 7.67 µM | M14 14.6 µM | MDA-MB-435 > 50 µM | MOLT-4 15.4 µM | Malme-3M 24.1 µM | NCI-H23 44.5 µM | OVCAR-3 19.5 µM | OVCAR-8 10.4 µM | RXF 393 27 µM | SK-MEL-5 38.5 µM | U-251 9.16 µM | UACC-62 15.9 µM

Oc1c(CN2CCOCC2)ccc(CN2CCOCC2)c1O
inactive: DU-145 26.6 µM | HOP-62 42.3 µM | IGROV-1 70.5 µM | LOX IMVI 39 µM | M14 22.9 µM | MDA-MB-435 81.7 µM | MOLT-4 24.2 µM | Malme-3M 31 µM | NCI-H23 36.6 µM | NCI-H460 25.7 µM | OVCAR-3 21.2 µM | OVCAR-8 47.2 µM | RXF 393 29.2 µM | SF-539 25.7 µM | SK-MEL-5 25.5 µM | U-251 40.1 µM | UACC-62 25.2 µM

O=C1/C(=C/c2n[nH]cc2-c2ccc(Cl)cc2)C(=O)N(c2ccccc2)C1c1ccccc1 (centres undefined)
inactive: DU-145 20.6 µM | HOP-62 17.4 µM | IGROV-1 16.6 µM | LOX IMVI 14.3 µM | M14 12.9 µM | MDA-MB-435 14.9 µM | MOLT-4 16.9 µM | Malme-3M 22.9 µM | NCI-H23 13.3 µM | NCI-H460 26.4 µM | OVCAR-3 6.28 µM | RXF 393 14.3 µM | SF-539 22.3 µM | SK-MEL-5 13.8 µM | U-251 19.9 µM | UACC-62 11.5 µM

NC(=S)Nc1nc(=S)[nH]c2c1SC1=N/C(=C\c3ccco3)C(=O)N12
inactive: DU-145 > 100 µM | HOP-62 > 100 µM | IGROV-1 45.2 µM | LOX IMVI 40.6 µM | M14 > 60.7 µM | MDA-MB-435 > 100 µM | MOLT-4 44.1 µM | Malme-3M 44.7 µM | NCI-H23 > 100 µM | NCI-H460 68.7 µM | OVCAR-3 > 89.7 µM | OVCAR-8 > 100 µM | RXF 393 > 100 µM | SF-539 > 77.6 µM | SK-MEL-5 > 82.8 µM | U-251 > 100 µM | UACC-62 > 100 µM

CC(C)(C)c1ccc(O)c(CN(Cc2cc(C(C)(C)C)ccc2O)c2ccccc2)c1
inactive: DU-145 19.1 µM | HOP-62 20.8 µM | IGROV-1 21.1 µM | LOX IMVI 13.7 µM | M14 14.4 µM | MDA-MB-435 16.2 µM | MOLT-4 15.6 µM | Malme-3M 15.8 µM | NCI-H23 21.1 µM | NCI-H460 16.5 µM | OVCAR-3 15.6 µM | OVCAR-8 19.1 µM | RXF 393 13.6 µM | SF-539 17.6 µM | SK-MEL-5 15.1 µM | U-251 15.1 µM | UACC-62 14.7 µM

COC(=O)C(=O)C(C(=O)C(=O)Nc1ccc(C)c(C)c1)c1nc2ccc([N+](=O)[O-])cc2nc1O (centres undefined)
inactive: HCC 2998 > 100 µM | HOP-62 > 100 µM | IGROV-1 > 100 µM | LOX IMVI > 100 µM | M14 > 100 µM | MDA-MB-435 > 100 µM | MOLT-4 > 100 µM | Malme-3M > 100 µM | NCI-H23 > 100 µM | NCI-H460 > 100 µM | OVCAR-3 > 100 µM | OVCAR-8 > 100 µM | RXF 393 > 100 µM | SF-539 > 100 µM | SK-MEL-5 > 100 µM | U-251 > 100 µM | UACC-62 > 100 µM

Cc1ccc(/C=N/n2c(=O)[nH]c3ccccc3c2=O)cc1
inactive: DU-145 > 100 µM | HOP-62 > 100 µM | IGROV-1 > 100 µM | LOX IMVI > 100 µM | M14 > 100 µM | MDA-MB-435 > 100 µM | MOLT-4 > 100 µM | NCI-H23 > 100 µM | NCI-H460 > 100 µM | OVCAR-3 > 100 µM | SF-539 > 100 µM | SK-MEL-5 > 100 µM | U-251 > 100 µM | UACC-62 > 100 µM

Cc1ccc(SCN2CCCCC2)cc1.O=C(Cl)c1ccc([N+](=O)[O-])cc1
inactive: DU-145 13.7 µM | HOP-62 16.2 µM | IGROV-1 3.3 µM | LOX IMVI 2.97 µM | M14 17.8 µM | MDA-MB-435 10.1 µM | MOLT-4 3.37 µM | Malme-3M 13.1 µM | NCI-H23 8.22 µM | OVCAR-3 12.9 µM | OVCAR-8 25.9 µM | RXF 393 6.15 µM | SK-MEL-5 2.78 µM | U-251 11.2 µM | UACC-62 13.7 µM

COc1ccc(-c2c3c(n(C4OC(CO)C(O)C(O)C4O)c(=S)c2C#N)CCCC3)cc1 (centres undefined)
inactive: HCC 2998 > 100 µM | HOP-62 > 100 µM | IGROV-1 > 100 µM | LOX IMVI > 100 µM | M14 > 100 µM | MDA-MB-435 > 100 µM | MOLT-4 73.1 µM | Malme-3M > 100 µM | NCI-H23 > 100 µM | NCI-H460 > 100 µM | OVCAR-3 > 100 µM | OVCAR-8 > 100 µM | RXF 393 > 100 µM | SF-539 > 100 µM | SK-MEL-5 62.2 µM | UACC-62 > 100 µM

NC12c3c4cccc3Oc3cccc(c31)Oc1cccc(c12)O4
inactive: DU-145 > 50 µM | HOP-62 > 50 µM | IGROV-1 > 50 µM | M14 > 50 µM | MDA-MB-435 > 50 µM | MOLT-4 > 50 µM | NCI-H23 > 50 µM | NCI-H460 > 50 µM | OVCAR-3 > 50 µM | OVCAR-8 > 50 µM | RXF 393 > 50 µM | SF-539 > 50 µM | U-251 > 50 µM | UACC-62 > 50 µM

COc1ccc(-c2nc(O)c3ccccc3n2)cc1
inactive: DU-145 > 100 µM | HOP-62 > 100 µM | IGROV-1 29.1 µM | LOX IMVI 39.8 µM | M14 > 100 µM | MDA-MB-435 > 100 µM | MOLT-4 > 100 µM | Malme-3M > 100 µM | NCI-H23 87.5 µM | OVCAR-3 > 100 µM | OVCAR-8 32.4 µM | RXF 393 > 100 µM | SF-539 45.9 µM | SK-MEL-5 > 100 µM | U-251 24.8 µM | UACC-62 71.1 µM
